The record followed here is patent US12534762B2, “Treating atopic dermatitis by targeting the WNT pathway” (Children's Medical Center Corporation, priority 2018, dated 2026).

In one data set the test system is Xenopus embryos. Briefly: MO specificity, Western blotting of protein synthesis from co-injected mRNA. Type of data set: in vivo, Xenopus laevis. The note with it: stage 10. Here is the method: (§1) mRNA and Morpholino injection. For animal cap assays, indicated mRNAs (Tmem79, 100 and 200 pg; Xwnt8, 10 pg; β-catenin 50 pg; Xnr1, 250 pg; BMP4, 100 pg) were injected into the animal pole at 4-cell stage, and animal caps were dissected at stage 9 (in the case of Xwnt8, Xnr1, BMP4) or at stage 8.5 and treated with recombinant proteins (bFGF, 100 ng/ml; hShh, 1.5 ng/mL) until stage 10 before RT-PCR. For Neural induction assay the MO (20 ng) for Tmem79, Usp8 or β-catenin was injected into the animal pole at 4-cell stage, and animal caps were dissected at stage 9 and treated with recombinant protein Noggin (500 ng/mL) until stage 18 before RT-PCR. To examine Tmem79 and Usp8 MOs specificity, […] of mRNA of Xenopus Tmem79, mouse Tmem79, Xenopus Usp8 or xmutUsp8 (Xenopus Usp8 mutated for mismatches with the MO) were injected with a control MO, Tmem79 MO or Usp8 MO (20 ng) into the animal pole at the 2-cell stage and cultured til stage 10 for Western blotting. To knockdown the endogenous xTmem79 or xUsp8, 20 ng of control MO, Tmem79 MO or Usp8 MO were injected into two dorso-animal blastomeres at the 8-cell stage and the phenotype was scored at stage 35. To rescue the Tmem79 MO phenotype, […] of mTmem 79, 20 ng of Usp8 MO or 10 ng of β-catenin MO was injected together with Tmem79 MO (20 ng). RT-PCR primers and Morpholinos. […]
(Immunoblotting shows a protein as a band on a membrane.)

The test system of data set [1] is animal pole explants of Xenopus embryos. Nature of the data set: Neural induction assay by Noggin in animal pole explants (RT-PCR). More on the design: species or system Xenopus laevis. The note with it: co-injected with Tmem79MO. Here is the method: as §1

Turning to “Usp8 MO: morpholino against Xenopus Usp8, SEQ ID NO: 26 (antisense GCTGCAAATTCTCCTCTCTTATCAA; all phosphorodiamidate morpholino (PMO); listed as Xenopus laevis)”, in the data set with Xenopus embryos, the “protein synthesis from the Xenopus Usp8 (xUsp8) mRNA” value was “inhibited”. For the same substance, the “neural induction by Noggin abolished by Tmem79MO: effect of co-injection” value in data set [1] is “rescued”.
